Measured values as given in patent US20090105316A1, “Biphenyl Thiazole Carboxamides” (Bayer CropScience AG, priority 2004, published 2009).

Assay: Log P determination by HPLC on a reversed-phase column (EEC Directive 79/831, Annex V.A8)
Format: physicochemical
Conditions: reversed-phase HPLC column (C 18); pH 2.3
Experimental: The determination of the Log P values occurred according to EEC Directive 79/831, Annex V.A8 using HPLC (High Performance Liquid Chromatography) on a reversed-phase column (C 18). Temperature: 43° C. Eluents for determination in the acidic range (pH 2.3): 0.1% aqueous phosphoric acid, acetonitrile; linear gradient of 10% acetonitrile to 90% acetonitrile. Calibration took place using unbranched alkane-2-ones (with 3 to 16 carbon atoms) with known Log P values (the Log P values were determined on the basis of the retention times by way of linear interpolation between two consecutive alkanones).

SMILES | chromatographic logP
Cc1ccc(-c2cc(C(F)(F)F)ccc2N)cc1 [4′-methyl-5-(trifluoromethyl)biphenyl-2-amine] | 3.98
Cc1ccc(-c2cc(C(F)(F)F)ccc2NC(=O)c2sc(C)nc2C(F)(F)F)cc1 [Compound 1.15, 2-methyl-N-[4′-methyl-5-(trifluoromethyl)biphenyl-2-yl]-4-(trifluoromethyl)-1,3-thiazole-5-carboxamide] | 4.48
